Laboratory results: patent publication US20090099218A1, “SYNTHESIS OF NOVEL TUBULIN POLYMERIZATION INHIBITORS: BENZOYLPHENYLUREA (BPU) SULFUR ANALOGS” (priority 2007, published 2009)

Legend:
Panc430 = test: MTT growth inhibition, pancreatic cell line Panc430; format: cell-based; settings: for IC50: MTT assay, 96 h treatment, average of three independent experiments
Protocol: Eight of these analogs 6d, 6h, 6n, 6g, 7b, 7d, 8g, and 8h were tested for their cytotoxicity in seven pancreatic cell lines ASPC1, Panc1, Panc203, Panc430, Pane 1005, MiaPaca2, and HS766T using MTT assay. Cells were trypsinized, seeded at 5×10^3 cells/well in 96-well plate and allowed to grow for 24 hours before the treatment with exponential increasing concentrations of drugs in the presence of 10% FBS. After a 96-hours period of treatment, 20 μl of MTT solution (5 mg/ml in PBS) were added to each well, and the plates were then incubated for 3 hours at 37° C. Medium was then replaced with 100 μl of DMSO per well. Plates were shaken and the optical density was measured at 570 nm using a multiwell plate reader (Bio-Rad, Model 550, Bio-Rad Inc., Hercules, Calif.). Each experiment was performed in triplicate for each drug concentration and was carried out independently at least 3 times. The IC50 value was defined as the concentration needed for a 50% reduction in the absorbance calculated based on the survival curves. Response to drug treatment was assessed by standardizing treatment groups to untreated controls. Compounds activity was compared with compound 1.
Table 2 (Growth Inhibition of Pancreatic Cancer Cell Lines by BPU and BPTU Analogues (IC50) a) compares the cytotoxicity of a series of new derivatives against a panel of seven pancreatic cancer cell lines, as determined by MTT assay. See, Mosmann, T., J. Immunol. Methods 65:55-63 (1983).

[1] = tested on: 11 pancreatic cancer cell line panel; test: Clonogenic growth, pancreatic cancer cell line panel; format: cell-based; settings: doses above 0.5 μmol/L
Protocol: The cell lines ASPC1, MiaPaca2, HS766T, and L36PL were obtained from the American Tissue Culture Collection and are derived from pancreas carcinomas. The cell lines Panc1, Panc203, and Panc1005 are low-passage pancreas cell lines. The cell lines XPA3 and XPA4 are lowpassage. The cell lines E3LZ10 and E3JD13 are lowpassage pancreas cell lines. For clonogenic assessment, 500 cells per well were seeded in six-well plates with enriched RPMI (10% fetal bovine serum+1% penicillin/streptomycin) and exposed to increasing drug concentrations for 96 h. After this, the drug was removed, and the cells were allowed to grow for 14 days before manual colony counting. Each experiment was done in duplicate for each drug concentration and was carried out independently at least thrice. For MAPT protein and mRNA expression analysis, the cell lines were grown in six-well plates with enriched RPMI. When the cells reached a 60% to 70% confluence, they were washed twice with chilled PBS; lysis buffer was added to the plates; and the cells were scraped for protein extraction. An identical experimental set was lysed with RLT (Qiagen) for mRNA extraction.
Clonogenic growth was impaired at concentrations between 0.01 and 0.5 μmol/L (FIG. 35B), with no colony formation at higher doses in 9 of the 11 cell lines. […] Two isoforms of MAPT protein were detected (45 and 65 kDa). […]

tubulin = test: Inhibition of [3H]colchicine binding; settings: Tubulin 1 μM; [3H]colchicine and inhibitor at 5 μM
MCF-7 cells = test: Apoptosis of MCF-7 cells; format: cell-based; settings: 48 hours

Row | Compound | IC50 (Panc430) [nM] | increase in potency over 6m (Panc430; Panc430) [fold] | cell lines with no colony formation at higher doses [1] | colchicine binding (% ± SD), inhibition of [3H]colchicine binding (tubulin) [%] | rate of apoptosis (MCF-7 cells; 10 nM) [%] | rate of apoptosis (MCF-7 cells; 30 nM) [%] | rate of apoptosis (MCF-7 cells; 100 nM) [%] | increase in activity compared to 7c (Panc430; Panc430) [fold]
1 | O=C(NC(=O)c1ccccc1[N+](=O)[O-])Nc1ccc(Sc2ncc(Br)cn2)cc1 [Compound 6n, 1-[4-(5-Bromopyrimidin-2-ylsulfanyl)phenyl]-3-(2-nitrobenzoyl)-urea] | 90 | 111 | 9 of the 11 | 17 ± 3 | 29.7 | 51.2 | 53.6 | 
2 | Nc1ccccc1C(=O)NC(=O)Nc1ccc(Sc2ncc(Br)cn2)cc1 [Compound 7d] | 200 |  | 9 of the 11 |  |  |  |  | > 50
